Each structure is given as a SMILES string.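 Assay format: 96-well plates, 48-hour exposure. TGI: concentration producing complete growth inhibition.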 Where a SMILES comes first, the peptide text is derived from it. The star is where a group is joined. Fmoc = O=C(OCC1c2ccccc2-c2ccccc21)*; OtBu = CC(C)(C)O* Bounds are passed on as bounds.

TGI data for 11 compounds are collected here from PubChem BioAssay (NCI).

Test systems include A549 NSCLC; COLO 205 colon; HOP-62 NSCLC; HS 578T breast; MOLT-4 leukemia; NCI-H23 lung; OVCAR-4 ovarian; SK-MEL-28 melanoma; SR leukemia; SW-620 colon; U251 CNS; UO-31 renal.
What all share (test): NCI tumour cell line growth inhibition, 48 h

In the case of `CC(C)C(NC(=O)OCC1c2ccccc2-c2ccccc21)C(=O)NC(CCC(=O)OC(C)(C)C)C(=O)OC(C)(C)C` (centres undefined) (Fmoc-Val-Glu(OtBu)-OtBu; configuration not given here), the TGI in the test on A549 NSCLC is over 100 µM; in the test on COLO 205 colon, over 31.6 µM; in the test with HOP-62 NSCLC it was over 100 µM; in the test on HS 578T breast, over 100 µM; in the test on MOLT-4 leukemia, over 100 µM; with NCI-H23 lung it was over 100 µM. The TGI with OVCAR-4 ovarian, in the test on SK-MEL-28 melanoma, with SR leukemia, with SW-620 colon, in the test on U251 CNS and with UO-31 renal was over 100 µM each time.

On to `Nc1nc(Cl)cc(NCC2(O)CCC2)n1`, for which the TGI with A549 NSCLC, in the test on COLO 205 colon, in the test on HOP-62 NSCLC, with HS 578T breast, in the test with MOLT-4 leukemia and in the test on NCI-H23 lung was over 100 µM in each case. Moreover, the TGI in the test on OVCAR-4 ovarian, with SK-MEL-28 melanoma, with SR leukemia, in the test with SW-620 colon, in the test on U251 CNS and with UO-31 renal was over 100 µM throughout.

For the compound `COc1ccc(S(=O)(=O)N2C(=O)CCC2C(=O)NC(N)=O)cc1` (centres undefined), the TGI in the test with A549 NSCLC, in the test with COLO 205 colon, with HOP-62 NSCLC, in the test on HS 578T breast, in the test with MOLT-4 leukemia and in the test with NCI-H23 lung was over 100 µM throughout. The TGI with OVCAR-4 ovarian, in the test on SK-MEL-28 melanoma, in the test on SR leukemia, in the test with SW-620 colon, in the test with U251 CNS and with UO-31 renal was over 100 µM in each case.

Consider `O=C1/C(=C/c2cccc(Cl)c2)CCCc2ccccc21`, for which the TGI is over 100 µM with A549 NSCLC; 38.5 µM in the test on COLO 205 colon; 49 µM with HOP-62 NSCLC; 32.9 µM with HS 578T breast; 53.7 µM in the test with MOLT-4 leukemia; 36 µM in the test on NCI-H23 lung. For the same compound, the TGI worked out at 31.4 µM with OVCAR-4 ovarian; 33.6 µM with SK-MEL-28 melanoma; 35.2 µM with SR leukemia; 33.9 µM with SW-620 colon; 29.4 µM in the test on U251 CNS; 30.1 µM with UO-31 renal.

As for `Cc1ccc(O)c(C(c2cccc(C(c3cc(C)ccc3O)c3cc(C)ccc3O)c2)c2cc(C)ccc2O)c1`, the TGI came to 4 µM with A549 NSCLC; 2.47 µM in the test with COLO 205 colon; 4.04 µM in the test on HOP-62 NSCLC; 4.01 µM in the test with HS 578T breast; 18.8 µM in the test on MOLT-4 leukemia; 3.18 µM with NCI-H23 lung. For the same compound, the TGI was determined as 3.73 µM in the test with OVCAR-4 ovarian; 3.46 µM in the test on SK-MEL-28 melanoma; 7.55 µM with SR leukemia; 3.2 µM in the test on SW-620 colon; 3.32 µM in the test on U251 CNS; 3.34 µM in the test on UO-31 renal.

On to `O=C1NC2c3c(I)sc(I)c3C(=O)C2O1` (centres undefined), for which the TGI in the test with A549 NSCLC was 28.3 µM; with HOP-62 NSCLC, 28.1 µM; in the test on HS 578T breast, 35.1 µM; in the test with MOLT-4 leukemia, over 38.5 µM; in the test with NCI-H23 lung, 16.6 µM; with OVCAR-4 ovarian, 23 µM. Moreover, the TGI with SK-MEL-28 melanoma is 21.5 µM; with SR leukemia, 13.9 µM; in the test on SW-620 colon, 9.76 µM; in the test with U251 CNS it was over 50 µM; with UO-31 renal it was 12.2 µM.

As for `Oc1c(Br)cc(/C=C/c2ccnc(/C=C/c3cc(Br)c(O)c(Br)c3)c2)cc1Br`, the TGI is 77 µM with A549 NSCLC; 59.9 µM with COLO 205 colon; over 100 µM in the test on HOP-62 NSCLC; over 100 µM with HS 578T breast; 45.8 µM in the test with MOLT-4 leukemia; 87.2 µM with OVCAR-4 ovarian. Further, the TGI in the test with SK-MEL-28 melanoma was over 100 µM; in the test on SR leukemia it was 45.9 µM; with SW-620 colon it was over 100 µM; with U251 CNS, 30.8 µM; in the test on UO-31 renal, 35.4 µM.

As to `FC1(F)[Se]C2C3CCC(C3)C2C1(F)F` (centres undefined), the TGI with A549 NSCLC, in the test on COLO 205 colon, in the test on HOP-62 NSCLC, in the test with HS 578T breast, in the test on MOLT-4 leukemia and with OVCAR-4 ovarian was over 100 µM each time. For the same compound, the TGI with SK-MEL-28 melanoma, in the test on SR leukemia, in the test on SW-620 colon, in the test with U251 CNS and in the test on UO-31 renal was over 100 µM in each case.

As for `CC1=NN(c2nc(N)nc(CN3CCOCC3)n2)C(C)(C)C1`, the TGI in the test with A549 NSCLC, with COLO 205 colon, in the test on HOP-62 NSCLC, in the test on HS 578T breast, in the test on MOLT-4 leukemia and in the test with NCI-H23 lung was over 100 µM throughout. Further, the TGI is 45.7 µM in the test with OVCAR-4 ovarian; over 100 µM with SK-MEL-28 melanoma; over 100 µM in the test with SR leukemia; over 100 µM with SW-620 colon; over 100 µM with U251 CNS; 33.3 µM in the test with UO-31 renal.

On to `N#CC12C(=O)N3C(=NC(c4ccco4)NC3c3ccco3)C1(C#N)C(c1ccco1)NC1=C2CCCC1` (centres undefined), for which the TGI in the test with A549 NSCLC, in the test with COLO 205 colon, in the test on HOP-62 NSCLC, in the test with HS 578T breast, in the test with MOLT-4 leukemia and with NCI-H23 lung was over 100 µM throughout. Moreover, the TGI in the test with OVCAR-4 ovarian, with SK-MEL-28 melanoma, in the test on SR leukemia, with SW-620 colon, in the test on U251 CNS and in the test on UO-31 renal was over 100 µM each time.

On to `C=C(Cl)C(Cl)(CBr)CCC(Br)C(C)(C)Br` (centres undefined), for which the TGI was 16.3 µM in the test on A549 NSCLC; 10.8 µM in the test on COLO 205 colon; 1.83 µM in the test with HOP-62 NSCLC; 12.1 µM with HS 578T breast; 25.3 µM in the test on MOLT-4 leukemia; 31.5 µM in the test with NCI-H23 lung. Also, the TGI in the test on OVCAR-4 ovarian amounted to 36 µM; with SK-MEL-28 melanoma, 10.1 µM; with SR leukemia it was 32.9 µM; in the test with SW-620 colon, 8.32 µM; in the test on U251 CNS, 3.37 µM; with UO-31 renal, 20.1 µM.
